Results taken from PubChem BioAssay (NCI).
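Test compounds were applied to cells in 96-well plates for 48 hours at 5 doses. GI50 = concentration required for 50% inhibition of growth. TGI marks complete inhibition of growth.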

Experiments:
Experiment in all cases: NCI tumour cell line growth inhibition, 48 h
[1] = test system: 786-0 renal
[2] = test system: A498 renal
[3] = test system: A549 NSCLC
[4] = test system: ACHN renal
[5] = test system: BT-549 breast
[6] = test system: CAKI-1 renal
[7] = test system: CCRF-CEM leukemia
[8] = test system: COLO 205 colon
[9] = test system: DU-145 prostate
[10] = test system: EKVX NSCLC
[11] = test system: HCC-2998 colon
[12] = test system: HCT-116 colon
[13] = test system: HCT-15 colon
[14] = test system: HL-60(TB) leukemia
[15] = test system: HOP-62 NSCLC
[16] = test system: HOP-92 NSCLC
[17] = test system: HS 578T breast
[18] = test system: HT29 colon
[19] = test system: IGROV1 ovarian
[20] = test system: K-562 leukemia
[21] = test system: KM12 colon
[22] = test system: LOX IMVI melanoma
[23] = test system: M14 melanoma
[24] = test system: MALME-3M melanoma
[25] = test system: MCF7 breast
[26] = test system: MDA-MB-231 breast
[27] = test system: MDA-MB-435
[28] = test system: MOLT-4 leukemia
[29] = test system: NCI-H226 lung
[30] = test system: NCI-H23 lung
[31] = test system: NCI-H460 lung
[32] = test system: NCI-H522 lung
[33] = test system: NCI/ADR-RES ovarian
[34] = test system: OVCAR-3 ovarian
[35] = test system: OVCAR-4 ovarian
[36] = test system: OVCAR-5 ovarian
[37] = test system: OVCAR-8 ovarian
[38] = test system: PC-3 prostate
[39] = test system: SF-268 CNS
[40] = test system: SF-295 CNS
[41] = test system: SF-539 CNS
[42] = test system: SK-MEL-2 melanoma
[43] = test system: SK-MEL-28 melanoma
[44] = test system: SK-MEL-5 melanoma
[45] = test system: SK-OV-3 ovarian
[46] = test system: SN12C renal
[47] = test system: SNB-19 CNS
[48] = test system: SNB-75 CNS
[49] = test system: SR leukemia
[50] = test system: SW-620 colon
[51] = test system: T-47D breast
[52] = test system: TK-10 renal
[53] = test system: U251 CNS
[54] = test system: UACC-257 melanoma
[55] = test system: UACC-62 melanoma
[56] = test system: UO-31 renal

COc1ccccc1N1CCN(CC(O)COc2c(Br)c(Br)c(Br)c3c2OC(C)(C)C3)CC1 (configuration not stated)
GI50 [1]: 12.8 µM | TGI [1]: 29.6 µM | GI50 [2]: 20.4 µM | TGI [2]: 47.9 µM | GI50 [3]: 16.6 µM | TGI [3]: 96.5 µM | GI50 [4]: 14.2 µM | TGI [4]: > 100 µM | GI50 [5]: 12.5 µM | TGI [5]: 34.1 µM | GI50 [6]: 4.56 µM | TGI [6]: 12.3 µM | GI50 [7]: 92.2 µM | TGI [7]: > 100 µM | GI50 [8]: 12.4 µM | TGI [8]: 30.4 µM | GI50 [9]: 16.5 µM | TGI [9]: 37.3 µM | GI50 [10]: 8.85 µM | TGI [10]: > 100 µM | GI50 [11]: 4.57 µM | TGI [11]: 16.5 µM | GI50 [12]: 4.45 µM | TGI [12]: 20.1 µM | GI50 [13]: 4.72 µM | TGI [13]: 24.8 µM | GI50 [14]: 5.05 µM | TGI [14]: > 100 µM | GI50 [15]: 12.6 µM | TGI [15]: 30.8 µM | GI50 [16]: 6.15 µM | TGI [16]: 24.1 µM | GI50 [17]: 15 µM | TGI [17]: 42 µM | GI50 [18]: 4.1 µM | TGI [18]: 14 µM | GI50 [19]: 12.8 µM | TGI [19]: 38.9 µM | GI50 [20]: 4.7 µM | TGI [20]: > 100 µM | GI50 [21]: 13.7 µM | TGI [21]: 56.1 µM | GI50 [22]: 6.38 µM | TGI [22]: 18.9 µM | GI50 [23]: 13.2 µM | TGI [23]: 37.5 µM | GI50 [24]: 16.1 µM | TGI [24]: 37.5 µM | GI50 [25]: 25.5 µM | TGI [25]: > 100 µM | GI50 [26]: 12.9 µM | TGI [26]: 32.1 µM | GI50 [27]: 16.2 µM | TGI [27]: 55.1 µM | GI50 [28]: 4.25 µM | TGI [28]: > 100 µM | GI50 [29]: 13.2 µM | TGI [29]: 64.5 µM | GI50 [30]: 9.53 µM | TGI [30]: 38.4 µM | GI50 [31]: 8.78 µM | TGI [31]: 54.4 µM | GI50 [32]: 12.3 µM | TGI [32]: 27.9 µM | GI50 [33]: 11.2 µM | TGI [33]: > 100 µM | GI50 [34]: 14.4 µM | TGI [34]: 34.6 µM | GI50 [35]: 8.93 µM | TGI [35]: > 100 µM | GI50 [36]: 19.4 µM | TGI [36]: > 100 µM | GI50 [37]: 31.5 µM | TGI [37]: 94.4 µM | GI50 [38]: 6.53 µM | TGI [38]: 43.4 µM | GI50 [39]: 33.3 µM | TGI [39]: > 100 µM | GI50 [40]: 4.68 µM | TGI [40]: 17.3 µM | GI50 [41]: 13.9 µM | TGI [41]: 32.1 µM | GI50 [42]: 5.32 µM | TGI [42]: 20.9 µM | GI50 [43]: 17.3 µM | TGI [43]: 36.8 µM | GI50 [44]: 4.91 µM | TGI [44]: 19.1 µM | GI50 [45]: 49.4 µM | TGI [45]: > 100 µM | GI50 [46]: 14.6 µM | TGI [46]: 32.9 µM | GI50 [47]: 17.9 µM | TGI [47]: 47.3 µM | GI50 [48]: 18.1 µM | TGI [48]: 94.1 µM | GI50 [49]: 7.83 µM | TGI [49]: > 100 µM | GI50 [50]: 9.6 µM | TGI [50]: 25.7 µM | GI50 [51]: 15.8 µM | TGI [51]: > 100 µM | GI50 [52]: 15.4 µM | TGI [52]: 46.7 µM | GI50 [53]: 10.6 µM | TGI [53]: 24.2 µM | GI50 [54]: 23.4 µM | TGI [54]: > 100 µM | GI50 [55]: 12 µM | TGI [55]: 30.6 µM | GI50 [56]: 9.66 µM | TGI [56]: 27.2 µM
